Laboratory results: patent US12473296B2, “Perk inhibiting compounds” (HiberCell, Inc., priority 2019, dated 2025)

Legend:
PERK = PERK (Homo sapiens (Human), UniProt Q9NZJ5); test: PERK cellular assay (TR-FRET, HEK293-EGFP-eIF2α cells, tunicamycin-induced ER stress); format: cell-based; conditions: tunicamycin 2 hours, read-out: Cellular IC50 (μM) (EIF2a)
How it was run: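 Cells pre-incubated with inhibitor 30 min at 37 °C, then ER stress induced with […] tunicamycin for 2 h. TR-FRET read on lysates; ratio normalized to DMSO control as percent inhibition over a 10-point, 3-fold dilution series; IC50 from 4-parameter logistic fit.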

[1] = target: EIF2AK3 (PERK) catalytic domain (amino acids 536-1116) (Homo sapiens (Human), UniProt Q9NZJ5); test: PERK in vitro activity assay (isolated), TR-FRET kinase assay; conditions: isolated PERK enzyme, 1.5 μM ATP, GFP-eIF2a substrate; read-out: Biochemical IC50
EIF2AK3 (PERK) catalytic domain (amino acids 536-1116), sequence (Q9NZJ5 536-1116): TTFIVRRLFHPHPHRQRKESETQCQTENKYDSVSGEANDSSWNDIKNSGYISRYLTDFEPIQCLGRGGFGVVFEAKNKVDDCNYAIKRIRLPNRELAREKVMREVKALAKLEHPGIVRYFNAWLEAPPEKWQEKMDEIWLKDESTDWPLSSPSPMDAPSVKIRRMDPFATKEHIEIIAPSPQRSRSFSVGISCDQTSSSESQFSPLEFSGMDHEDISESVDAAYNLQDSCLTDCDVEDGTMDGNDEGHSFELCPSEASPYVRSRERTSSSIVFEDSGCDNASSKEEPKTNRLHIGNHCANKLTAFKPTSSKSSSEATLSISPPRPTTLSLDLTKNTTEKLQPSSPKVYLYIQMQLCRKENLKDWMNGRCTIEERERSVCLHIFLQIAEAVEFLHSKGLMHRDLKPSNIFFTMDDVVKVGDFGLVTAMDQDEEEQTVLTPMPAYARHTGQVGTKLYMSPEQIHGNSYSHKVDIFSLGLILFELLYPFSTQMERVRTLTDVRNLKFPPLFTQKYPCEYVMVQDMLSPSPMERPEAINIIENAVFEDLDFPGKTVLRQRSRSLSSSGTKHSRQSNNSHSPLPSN
From the text: PERK In Vitro Activity Assay (Isolated):
In vitro Inhibition of PERK Enzyme Activity (isolated) Recombinant human EIF2AK2 (PKR) catalytic domain (amino acids 252-551), EIF2AK3 (PERK) catalytic domain (amino acids 536-1116), GFP-eIF2a substrate, and Terbium-labelled phospho-eIF2a antibody is obtained (Invitrogen, Carlsbad, CA).
Express and purify HIS-SUMO-GCN2 catalytic domain (amino acids 584-1019) from E. coli. Perform TR-FRET kinase assays in the absence or presence of inhibitors in a reaction buffer consisting of 50 mM HEPES, pH 7.5, 10 mM MgCb, 1.0 mM EGTA, and 0.01% Brij-35, and 100-200 nM GFP-eIF2a substrate. […] Add test compound, initiate the reaction by addition of enzyme, and incubate at room temperature for 45 minutes. Stop the reaction by addition of EDTA to a final concentration of 10 mM, add Terbium-labelled phospho-eIF2a antibody at a final concentration of 2 nM, and incubate for 90 minutes. Monitor the resulting fluorescence in an EnVison® Multilabel reader (PerkinElmer, Waltham, MA). Determine TR-FRET ratios and the resulting IC50 values using a 4-parameter nonlinear logistic equation as shown: Y=(A+((B−A)/(1+((C/x)[…])))) where, Y=% specific inhibition, A=Bottom of the curve, B=Top of the curve, C=absolute IC50 (concentration causing 50% inhibition), and D=hill slope.

PERK, sequence (Q9NZJ5 30-1116): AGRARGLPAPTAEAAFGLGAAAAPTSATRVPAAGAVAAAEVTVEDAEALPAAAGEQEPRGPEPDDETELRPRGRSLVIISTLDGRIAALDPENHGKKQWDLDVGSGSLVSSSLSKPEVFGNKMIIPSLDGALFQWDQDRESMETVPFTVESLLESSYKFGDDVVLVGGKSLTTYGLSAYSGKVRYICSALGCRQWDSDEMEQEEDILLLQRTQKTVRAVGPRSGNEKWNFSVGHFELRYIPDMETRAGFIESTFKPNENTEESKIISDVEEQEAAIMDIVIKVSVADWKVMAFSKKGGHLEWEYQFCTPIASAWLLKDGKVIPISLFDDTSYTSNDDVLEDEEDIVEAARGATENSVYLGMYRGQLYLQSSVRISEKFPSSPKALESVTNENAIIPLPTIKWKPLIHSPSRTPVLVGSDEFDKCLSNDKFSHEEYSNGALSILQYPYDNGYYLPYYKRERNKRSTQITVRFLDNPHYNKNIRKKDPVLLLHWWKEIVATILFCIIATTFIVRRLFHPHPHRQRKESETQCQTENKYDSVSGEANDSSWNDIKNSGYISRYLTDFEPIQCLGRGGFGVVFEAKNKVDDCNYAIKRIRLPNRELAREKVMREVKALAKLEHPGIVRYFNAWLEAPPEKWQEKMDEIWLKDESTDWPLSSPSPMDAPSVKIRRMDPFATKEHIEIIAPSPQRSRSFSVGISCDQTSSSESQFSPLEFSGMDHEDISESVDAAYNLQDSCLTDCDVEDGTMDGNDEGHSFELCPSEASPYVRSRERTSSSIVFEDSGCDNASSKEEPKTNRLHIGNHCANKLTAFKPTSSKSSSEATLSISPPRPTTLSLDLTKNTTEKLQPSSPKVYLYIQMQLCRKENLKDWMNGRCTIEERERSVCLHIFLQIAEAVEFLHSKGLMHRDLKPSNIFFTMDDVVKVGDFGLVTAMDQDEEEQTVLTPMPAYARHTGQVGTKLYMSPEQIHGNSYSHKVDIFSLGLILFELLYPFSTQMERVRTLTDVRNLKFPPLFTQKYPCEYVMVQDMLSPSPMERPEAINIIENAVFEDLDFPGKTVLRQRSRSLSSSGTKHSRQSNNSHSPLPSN

Compound | IC50 (PERK) [µM] | IC50 [1] [nM]
Cc1cc(NC(=O)C(O)c2cc(F)cc(F)c2)ccc1-c1cnc(N)c(C(=O)NC(C)(C)C)c1 (single isomer, unassigned) [Example 17, 2-amino-N-(tert-butyl)-5-(4-(2-(3,5-difluorophenyl)-2-hydroxyacetamido)-2-methylphenyl) nicotinamide] | 0.501 to 1 | 251 to 500
Cc1cc(NC(=O)C(O)c2ccccc2)ccc1-c1cnc(N)c(C(=O)NC(C)C)c1 (single isomer, unassigned) [Example 1, 2-amino-5-(4-(2-hydroxy-2-phenylacetamido)-2-methylphenyl)-N-isopropylnicotinamide] | 0.251 to 0.5 | 1 to 25
Cc1cc(NC(=O)C(O)c2cc(F)cc(F)c2)ccc1-c1cnc(N)c(C(=O)NC(C)C)n1 (centres unmarked) [Example 134, 3-amino-6-(4-(2-(3,5-difluorophenyl)-2-hydroxyacetamido)-2-methylphenyl)-N-isopropylpyrazine-2-carboxamide] | 0.026 to 0.05 | 1 to 25
Cc1cc(NC(=O)Cc2cccc(F)c2)ccc1-c1cnc(N)c(C(=O)NC(C)C)c1 [Example 190, 2-amino-5-(4-(2-(3-fluorophenyl)acetamido)-2-methylphenyl)-N-isopropylnicotinamide] | 0.501 to 1 | 51 to 100
Cc1cc(NC(=O)Cc2cc(F)cc(F)c2)ccc1-c1cnc(N)c(C(=O)NC(C)C)c1 [Example 186, 2-amino-5-(4-(2-(3,5-difluorophenyl)acetamido)-2-methylphenyl)-N-isopropylnicotinamide] | 0.101 to 0.25 | 51 to 100
Cc1cc(NC(=O)Cc2cccc(Cl)c2)ccc1-c1cnc(N)c(C(=O)NC(C)C)c1 [Example 199, 2-amino-5-(4-(2-(3-chlorophenyl)acetamido)-2-methylphenyl)-N-isopropylnicotinamide] | 0.101 to 0.25 | 26 to 50
CCc1cc(NC(=O)C(O)c2cc(F)cc(F)c2)ccc1-c1cnc(N)c(C(=O)NCC(F)(F)F)n1 (single isomer, unassigned) [Example 155, 3-amino-6-(4-(2-(3,5-difluorophenyl)-2-hydroxyacetamido)-2-ethylphenyl)-N-(2,2,2-trifluoroethyl) pyrazine-2-carboxamide] | 0.101 to 0.25 | 101 to 250
Cc1cc(NC(=O)C(O)c2cc(F)cc(F)c2)ccc1-c1cnc(N)c(C(=O)NC2CNC2)c1 (centres unmarked) [Example 45, 2-amino-N-(azetidin-3-yl)-5-(4-(2-(3,5-difluorophenyl)-2-hydroxyacetamido)-2-methylphenyl) nicotinamide] | > 5 | 51 to 100
Cc1cc(NC(=O)CC2CCC2)ccc1-c1cnc(N)c(C(=O)NC(C)C)c1 [Example 214, 2-amino-5-(4-(2-cyclobutylacetamido)-2-methylphenyl)-N-isopropylnicotinamide] | > 5 | 251 to 500
CNc1ncc(-c2ccc(NC(=O)C(O)c3cc(F)cc(F)c3)cc2C)cc1C(=O)NC(C)C (centres unmarked) [Example 175, 5-(4-(2-(3,5-difluorophenyl)-2-hydroxyacetamido)-2-methylphenyl)-N-isopropyl-2-(methylamino) nicotinamide] | > 5 | 1000 to 2000
Nc1ncc(-c2ccc(NC(=O)C(O)c3cc(F)cc(F)c3)cc2Cl)nc1C(=O)NCC(F)(F)F (centres unmarked) [Example 165, 3-amino-6-(2-chloro-4-(2-(3,5-difluorophenyl)-2-hydroxyacetamido)phenyl)-N-(2,2,2-trifluoroethyl) pyrazine-2-carboxamide] | 0.026 to 0.05 | 51 to 100
CCc1cccc(C(O)C(=O)Nc2ccc(-c3cnc(N)c(C(=O)NC(C)C)c3)c(Cl)c2)c1 (centres unmarked) [Example 95, 2-amino-5-(2-chloro-4-(2-(3-ethylphenyl)-2-hydroxyacetamido)phenyl)-N-isopropylnicotinamide] | 0.101 to 0.25 | 26 to 50
Cc1cc(N(O)C(=O)C(O)c2cc(F)cc(F)c2)ccc1-c1cnc(N)c(C(=O)NC(C)C)c1 (centres unmarked) [Example 182, 2-amino-5-(4-(2-(3,5-difluorophenyl)-N,2-dihydroxyacetamido)-2-methylphenyl)-N-isopropylnicotinamide] | 2 to 3 | 251 to 500
Cc1cc(NC(=O)C(O)c2cc(F)cc(F)c2)ccc1-c1cnc(N)c(C(=O)NC(C)C)c1 (centres unmarked) [Example 40, 2-amino-5-(4-(2-(3,5-difluorophenyl)-2-hydroxyacetamido)-2-methylphenyl)-N-isopropylnicotinamide] | 0.026 to 0.05 | 1 to 25
CC(C)NC(=O)c1cc(-c2ccc(NC(=O)C(O)c3cc(F)cc(F)c3)cc2C(F)(F)F)cnc1N (centres unmarked) [Example 37, 2-amino-5-(4-(2-(3,5-difluorophenyl)-2-hydroxyacetamido)-2-(trifluoromethyl)phenyl)-N-isopropylnicotinamide] | 0.251 to 0.5 | 101 to 250
Cc1cc(NC(=O)C(N)c2ccccc2)ccc1-c1cnc(N)c(C(=O)NC(C)C)c1 (centres unmarked) [Example 6, 2-amino-5-(4-(2-amino-2-phenylacetamido)-2-methylphenyl)-N-isopropyl-nicotinamide] | 3 to 4 | 1000 to 2000
Cc1ccc(-c2ccc(NC(=O)C(O)c3cc(F)cc(F)c3)cc2C)cn1 (centres unmarked) [Example 181, 2-(3,5-difluorophenyl)-2-hydroxy-N-(3-methyl-4-(6-methylpyridin-3-yl)phenyl)acetamide] | > 5 | > 5000
Cc1cc(NC(=O)Cc2ccccc2F)ccc1-c1cnc(N)c(C(=O)NC(C)C)c1 [Example 189, 2-amino-5-(4-(2-(2-fluorophenyl)acetamido)-2-methylphenyl)-N-isopropylnicotinamide] | 0.501 to 1 | 101 to 250
Cc1cc(NC(=O)CCc2ccccc2)ccc1-c1cnc(N)c(C(=O)NC(C)C)c1 [Example 188, 2-amino-N-isopropyl-5-(2-methyl-4-(3-phenylpropanamido)phenyl) nicotinamide] | 2 to 3 | 251 to 500
CC(C)NC(=O)c1cc(-c2ccc(NC(=O)C(O)c3cc(F)cc(F)c3)cc2F)cnc1N (centres unmarked) [Example 33, 2-amino-5-(4-(2-(3,5-difluorophenyl)-2-hydroxyacetamido)-2-fluorophenyl)-N-isopropylnicotinamide] | 0.251 to 0.5 | 101 to 250
COc1cc(NC(=O)C(O)c2cc(F)cc(F)c2)ccc1-c1cnc(N)c(C(=O)NC(C)C)c1 (centres unmarked) [Example 112, 2-amino-5-(4-(2-(3,5-difluorophenyl)-2-hydroxyacetamido)-2-methoxyphenyl)-N-isopropylnicotinamide] | 0.251 to 0.5 | 51 to 100
CCc1cc(NC(=O)C(O)c2cc(F)cc(F)c2)ccc1-c1cnc(N)c(C(=O)NC2CC2)n1 (centres unmarked) [Example 156, 3-amino-N-cyclopropyl-6-(4-(2-(3,5-difluorophenyl)-2-hydroxyacetamido)-2-ethylphenyl)pyrazine-2-carboxamide] | 0.001 to 0.025 | 1 to 25
CCNC(=O)c1cc(-c2ccc(NC(=O)C(O)c3cc(F)cc(F)c3)cc2C)cnc1N (single isomer, unassigned) [Example 13, 2-amino-5-(4-(2-(3,5-difluorophenyl)-2-hydroxyacetamido)-2-methylphenyl)-N-ethylnicotinamide] | 0.501 to 1 | 1 to 25
Cc1cc(NC(=O)Cc2cncc3ccccc23)ccc1-c1cnc(N)c(C(=O)NC(C)C)c1 [Example 210, 2-amino-N-isopropyl-5-(4-(2-(isoquinolin-4-yl)acetamido)-2-methylphenyl) nicotinamide] | 1 to 2 | 51 to 100
Cc1cccc(C(O)C(=O)Nc2ccc(-c3cnc(N)c(C(=O)NC(C)C)c3)c(C)c2)c1 (centres unmarked) [Example 67, 2-amino-5-(4-(2-hydroxy-2-(m-tolyl)acetamido)-2-methylphenyl)-N-isopropylnicotinamide] | 0.051 to 0.1 | 1 to 25
Cc1cc(NC(=O)Cc2ccc(Cl)cc2)ccc1-c1cnc(N)c(C(=O)NC(C)C)c1 [Example 200, 2-amino-5-(4-(2-(4-chlorophenyl)acetamido)-2-methylphenyl)-N-isopropylnicotinamide] | 0.501 to 1 | 501 to 1000
CNc1ncc(-c2ccc(NC(=O)C(O)c3cc(F)cc(F)c3)cc2C)cc1C(=O)NC(C)C (centres unmarked) [Example 174, 5-(4-(2-(3,5-difluorophenyl)-2-hydroxyacetamido)-2-methylphenyl)-N-isopropyl-2-(methylamino) nicotinamide] | 4 to 5 | 101 to 250
CCNC(=O)c1cc(-c2ccc(NC(=O)C(O)c3cc(F)cc(F)c3)cc2Cl)cnc1N (centres unmarked) [Example 83, 2-amino-5-(2-chloro-4-(2-(3,5-difluorophenyl)-2-hydroxyacetamido)phenyl)-N-ethylnicotinamide] | 0.251 to 0.5 | 1 to 25
